Laboratory results from patent US20190328783A1, “A METHOD OF ENGINEERING PRODRUG-SPECIFIC HYPERSENSITIVE T-CELLS FOR IMMUNOTHERAPY BY GENE EXPRESSION” (CELLECTIS, priority 2016, published 2019).
Entries after “also recorded” stand apart in the source; their conditions may differ.

Key:
[1] = test system: primary T cells transfected with CDA-BFP mRNA; experiment: Viability by flow cytometry of primary T cells transfected with CDA-BFP mRNA, in presence of prodrug; format: cell-based, human; settings: increasing concentration (0 to 10 mM) for 48H; FIG. 1
Description: FIG. 1: Analysis by FACS for BFP expression in T cells render hypersensitive to the prodrugs 5fdC and 5HmdC after CDA expression. mRNA encoding a chimeric construction consisting of CDA fused to a BFP reporter. A) Viability rate expressed in percentage: comparison between mock (T cells not transfected by the CDA expression plasmid)—represented in the graph by unfilled bar- and transfected T cells by the CDA expression plasmid—represented in the graph by filled bar-, when all cells are submitted to an increasing dose of the 5fdC prodrug (from 0 to 10 mM); B) The same than for A) excepted that the cells are submitted to an increasing dose of the 5HmdC prodrug (from 0 to 10 mM). […]
To test the ability of CDA expression to endow primary T cell with hypersensitivity to hypomethylated agents 5hmdC and 5FdC, primary T cells were transfected with 40 μg of mRNA encoding a chimeric construction consisting of CDA fused to a BFP reported via a 2A self-cleaving peptide (SEQ ID NO. 9). One day post transfection, cells were recovered and analyzed by flow cytometry for BFP expression.
Transfected cells were incubated in the presence of increasing concentration of 5hmdC or 5FdC for 48H. At the end of incubation, cell viability was determined by flow cytometry. […]

[2] = test system: dCK KO T cells expressing CDA-BFP; experiment: Viability by flow cytometry of dCK KO T cells transfected with CDA-BFP mRNA, in presence of prodrug; format: cell-based, human; settings: increasing concentration (0 to 10 mM) for 48H; FIG. 2
Method: FIG. 2: Analysis by FACS for BFP expression in T cells render hypersensitive to the prodrugs 5fdC and 5HmdC by combining CDA expression and inactivation of dCK gene by KO. mRNA encoding a chimeric construction consisting of CDA fused to a BFP reporter, and a KO inactivation of dCK is made by using TALE-nuclease as explained later. […]
To further investigate the ability of T cells to be sensitive to 5fdC, IC50 for this prodrug was determined on dCK KO and WT T cells. […] At the end of 5fdC incubation, viability of T cells was determined by FACS analysis.
FIG. 2 presents the results to show whether primary T cells having undergone dCK KO can still endow resistance to purine nucleotide analogues as well as with hypersensitivity toward 5hmDC and SFDC. One day post transfection, dCK KO T cells were recovered and analyzed by flow cytometry for BFP expression. […] As described earlier, transfected cells were incubated in the presence of increasing concentration of 5hmdC or 5FdC for 48H and at the end of incubation, cell viability was determined by flow cytometry.

SMILES	sensitivity (cell viability) of CDA-transfected T cells with respect to wild type cells [1]	prodrug hypersensitivity (cell viability) of dCK KO T cells transfected with CDA-BFP [2]
Nc1nc(=O)n([C@H]2C[C@H](O)[C@@H](CO)O2)cc1CO [5hmdC, 5-hydroxymethyl-2′-deoxycytidine]	increase of sensitivity	increase of specific prodrug hypersensitivity; also recorded: hypersensitive
Nc1nc(=O)n([C@H]2C[C@H](O)[C@@H](CO)O2)cc1C=O [5FdC, 5-formyl-2′-deoxycytidine]	increase of sensitivity	increase of specific prodrug hypersensitivity; also recorded: hypersensitive
